Tested on: DU-4475
Test: normalised response (% of control), CellTiter-Glo; higher = more viable cells (100 = DMSO, 0 = benzethonium chloride kill control)
Details: incubation time: 72 h
How it was run: (§1)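 Normalised signals at single concentrations make up the values. They come from breast cancer cell lines seeded (20 µl suspension) into 384-well plates with compound at 5 concentrations in 10-fold steps over a compound-specific 10,000-fold range, incubated 72 h, and read for CellTox Green fluorescence then CellTiter-Glo luminescence. Each plate was normalised to 0.1 % DMSO (100) and a positive kill control (0).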

Row | Structure (SMILES) | normalised response [%]
1 | COc1cc2c(cc1-c1c(C)noc1C)ncc1[nH]c(=O)n([C@H](C)c3ccccn3)c12 [I-BET151] (100 nM) | 94.8
2 | CC(C)n1nc(-c2ccc3oc(N)nc3c2)c2c(N)ncnc21 [INK128] (10 nM) | 86.8
3 | O=C(O)CC[C@H]1CC[C@@](c2cc(F)ccc2F)(S(=O)(=O)c2ccc(Cl)cc2)CC1 [MK-0752] (10 nM) | 102

Tested on: BT-549
Test: normalised response (% of control), CellTox Green; higher = less cell death (100 = DMSO, 0 = benzethonium chloride kill control)
Details: incubation time: 72 h
How it was run: as §1

Row | Structure (SMILES) | normalised response [%]
4 | CC(C)NC[C@@H](C(=O)N1CCN(c2ncnc3c2[C@H](C)C[C@H]3O)CC1)c1ccc(Cl)cc1 [GDC-0068] (100 nM) | 98.9
5 | CCCc1cc(C)[nH]c(=O)c1CNC(=O)c1cc(-c2ccnc(N3CCN(C)CC3)c2)cc2c1cnn2C(C)C [GSK343] (100 nM) | 98.5
6 | NC(=O)NO [Hydroxyurea] (1000 nM) | 105
7 | COc1cc2c(cc1-c1c(C)noc1C)ncc1[nH]c(=O)n([C@H](C)c3ccccn3)c12 [I-BET151] (100 nM) | 93.2
8 | CC(C)n1nc(-c2ccc3oc(N)nc3c2)c2c(N)ncnc21 [INK128] (10 nM) | 83.9
9 | O=C(O)CC[C@H]1CC[C@@](c2cc(F)ccc2F)(S(=O)(=O)c2ccc(Cl)cc2)CC1 [MK-0752] (10 nM) | 92.4

Tested on: HCC1937
Test: as above
Details: incubation time: 72 h
How it was run: as §1

Row | Structure (SMILES) | normalised response [%]
10 | CC(C)NC[C@@H](C(=O)N1CCN(c2ncnc3c2[C@H](C)C[C@H]3O)CC1)c1ccc(Cl)cc1 [GDC-0068] (100 nM) | 104
11 | CCCc1cc(C)[nH]c(=O)c1CNC(=O)c1cc(-c2ccnc(N3CCN(C)CC3)c2)cc2c1cnn2C(C)C [GSK343] (100 nM) | 87.8
12 | NC(=O)NO [Hydroxyurea] (1000 nM) | 109
13 | COc1cc2c(cc1-c1c(C)noc1C)ncc1[nH]c(=O)n([C@H](C)c3ccccn3)c12 [I-BET151] (100 nM) | 102
14 | CC(C)n1nc(-c2ccc3oc(N)nc3c2)c2c(N)ncnc21 [INK128] (10 nM) | 91.2
15 | O=C(O)CC[C@H]1CC[C@@](c2cc(F)ccc2F)(S(=O)(=O)c2ccc(Cl)cc2)CC1 [MK-0752] (10 nM) | 125

Tested on: MDA-MB-436
Test: as above
Details: incubation time: 72 h
How it was run: as §1

Row | Structure (SMILES) | normalised response [%]
16 | CC(C)NC[C@@H](C(=O)N1CCN(c2ncnc3c2[C@H](C)C[C@H]3O)CC1)c1ccc(Cl)cc1 [GDC-0068] (100 nM) | 85
17 | CCCc1cc(C)[nH]c(=O)c1CNC(=O)c1cc(-c2ccnc(N3CCN(C)CC3)c2)cc2c1cnn2C(C)C [GSK343] (100 nM) | 88.6
18 | NC(=O)NO [Hydroxyurea] (1000 nM) | 101
19 | COc1cc2c(cc1-c1c(C)noc1C)ncc1[nH]c(=O)n([C@H](C)c3ccccn3)c12 [I-BET151] (100 nM) | 64.7
20 | CC(C)n1nc(-c2ccc3oc(N)nc3c2)c2c(N)ncnc21 [INK128] (10 nM) | 94.7
21 | O=C(O)CC[C@H]1CC[C@@](c2cc(F)ccc2F)(S(=O)(=O)c2ccc(Cl)cc2)CC1 [MK-0752] (10 nM) | 99.9

Tested on: CAL-148
Test: as above
Details: incubation time: 72 h
How it was run: as §1

Row | Structure (SMILES) | normalised response [%]
22 | CC(C)NC[C@@H](C(=O)N1CCN(c2ncnc3c2[C@H](C)C[C@H]3O)CC1)c1ccc(Cl)cc1 [GDC-0068] (100 nM) | 82.4
23 | CCCc1cc(C)[nH]c(=O)c1CNC(=O)c1cc(-c2ccnc(N3CCN(C)CC3)c2)cc2c1cnn2C(C)C [GSK343] (100 nM) | 101
24 | NC(=O)NO [Hydroxyurea] (1000 nM) | 78.8
25 | COc1cc2c(cc1-c1c(C)noc1C)ncc1[nH]c(=O)n([C@H](C)c3ccccn3)c12 [I-BET151] (100 nM) | 102
26 | CC(C)n1nc(-c2ccc3oc(N)nc3c2)c2c(N)ncnc21 [INK128] (10 nM) | 96.6
27 | O=C(O)CC[C@H]1CC[C@@](c2cc(F)ccc2F)(S(=O)(=O)c2ccc(Cl)cc2)CC1 [MK-0752] (10 nM) | 101

Tested on: HCC1599
Test: as above
Details: incubation time: 72 h
How it was run: as §1

Row | Structure (SMILES) | normalised response [%]
28 | CC(C)NC[C@@H](C(=O)N1CCN(c2ncnc3c2[C@H](C)C[C@H]3O)CC1)c1ccc(Cl)cc1 [GDC-0068] (100 nM) | 94.8
29 | CCCc1cc(C)[nH]c(=O)c1CNC(=O)c1cc(-c2ccnc(N3CCN(C)CC3)c2)cc2c1cnn2C(C)C [GSK343] (100 nM) | 96.3
30 | NC(=O)NO [Hydroxyurea] (1000 nM) | 99.6
31 | COc1cc2c(cc1-c1c(C)noc1C)ncc1[nH]c(=O)n([C@H](C)c3ccccn3)c12 [I-BET151] (100 nM) | 99.1
32 | CC(C)n1nc(-c2ccc3oc(N)nc3c2)c2c(N)ncnc21 [INK128] (10 nM) | 95
33 | O=C(O)CC[C@H]1CC[C@@](c2cc(F)ccc2F)(S(=O)(=O)c2ccc(Cl)cc2)CC1 [MK-0752] (10 nM) | 122

Tested on: Hs578T
Test: as above
Details: incubation time: 72 h
How it was run: as §1

Row | Structure (SMILES) | normalised response [%]
34 | CC(C)NC[C@@H](C(=O)N1CCN(c2ncnc3c2[C@H](C)C[C@H]3O)CC1)c1ccc(Cl)cc1 [GDC-0068] (100 nM) | 97.8
35 | CCCc1cc(C)[nH]c(=O)c1CNC(=O)c1cc(-c2ccnc(N3CCN(C)CC3)c2)cc2c1cnn2C(C)C [GSK343] (100 nM) | 51
36 | NC(=O)NO [Hydroxyurea] (1000 nM) | 101
37 | COc1cc2c(cc1-c1c(C)noc1C)ncc1[nH]c(=O)n([C@H](C)c3ccccn3)c12 [I-BET151] (100 nM) | 108
38 | CC(C)n1nc(-c2ccc3oc(N)nc3c2)c2c(N)ncnc21 [INK128] (10 nM) | 108
39 | O=C(O)CC[C@H]1CC[C@@](c2cc(F)ccc2F)(S(=O)(=O)c2ccc(Cl)cc2)CC1 [MK-0752] (10 nM) | 56.9

Tested on: CAL-51
Test: as above
Details: incubation time: 72 h
How it was run: as §1

Row | Structure (SMILES) | normalised response [%]
40 | CC(C)NC[C@@H](C(=O)N1CCN(c2ncnc3c2[C@H](C)C[C@H]3O)CC1)c1ccc(Cl)cc1 [GDC-0068] (100 nM) | 106
41 | CCCc1cc(C)[nH]c(=O)c1CNC(=O)c1cc(-c2ccnc(N3CCN(C)CC3)c2)cc2c1cnn2C(C)C [GSK343] (100 nM) | 62.8
42 | NC(=O)NO [Hydroxyurea] (1000 nM) | 78.6
43 | COc1cc2c(cc1-c1c(C)noc1C)ncc1[nH]c(=O)n([C@H](C)c3ccccn3)c12 [I-BET151] (100 nM) | 112
44 | CC(C)n1nc(-c2ccc3oc(N)nc3c2)c2c(N)ncnc21 [INK128] (10 nM) | 99.6
45 | O=C(O)CC[C@H]1CC[C@@](c2cc(F)ccc2F)(S(=O)(=O)c2ccc(Cl)cc2)CC1 [MK-0752] (10 nM) | 103

Tested on: CAL-120
Test: as above
Details: incubation time: 72 h
How it was run: as §1

Row | Structure (SMILES) | normalised response [%]
46 | CC(C)NC[C@@H](C(=O)N1CCN(c2ncnc3c2[C@H](C)C[C@H]3O)CC1)c1ccc(Cl)cc1 [GDC-0068] (100 nM) | 104
47 | CCCc1cc(C)[nH]c(=O)c1CNC(=O)c1cc(-c2ccnc(N3CCN(C)CC3)c2)cc2c1cnn2C(C)C [GSK343] (100 nM) | 95.3
48 | NC(=O)NO [Hydroxyurea] (1000 nM) | 101
49 | COc1cc2c(cc1-c1c(C)noc1C)ncc1[nH]c(=O)n([C@H](C)c3ccccn3)c12 [I-BET151] (100 nM) | 97.4
50 | CC(C)n1nc(-c2ccc3oc(N)nc3c2)c2c(N)ncnc21 [INK128] (10 nM) | 100
51 | O=C(O)CC[C@H]1CC[C@@](c2cc(F)ccc2F)(S(=O)(=O)c2ccc(Cl)cc2)CC1 [MK-0752] (10 nM) | 107

Tested on: MFM-223
Test: as above
Details: incubation time: 72 h
How it was run: as §1

Row | Structure (SMILES) | normalised response [%]
52 | CC(C)NC[C@@H](C(=O)N1CCN(c2ncnc3c2[C@H](C)C[C@H]3O)CC1)c1ccc(Cl)cc1 [GDC-0068] (100 nM) | 102
53 | CCCc1cc(C)[nH]c(=O)c1CNC(=O)c1cc(-c2ccnc(N3CCN(C)CC3)c2)cc2c1cnn2C(C)C [GSK343] (100 nM) | 99.6
54 | NC(=O)NO [Hydroxyurea] (1000 nM) | 89.5
55 | COc1cc2c(cc1-c1c(C)noc1C)ncc1[nH]c(=O)n([C@H](C)c3ccccn3)c12 [I-BET151] (100 nM) | 103

— the supplement of paper PMC4862054
